The values that follow come from ChEMBL document CHEMBL3991601, “The target landscape of clinical kinase drugs” (Science, 2017).

Counter-ions that a name gives are not always drawn. Activity calls are given as the source filed them. Cut-off read from the data, not from the text of the source: actives have a measured Kd and inactives only a lower limit. Bounds are passed on as bounds.

For assay [1], the target named is T1, Serine/threonine-protein kinase TAO1 (Homo sapiens, UniProt Q7L7X3).
T1 sequence (Q7L7X3 whole entry): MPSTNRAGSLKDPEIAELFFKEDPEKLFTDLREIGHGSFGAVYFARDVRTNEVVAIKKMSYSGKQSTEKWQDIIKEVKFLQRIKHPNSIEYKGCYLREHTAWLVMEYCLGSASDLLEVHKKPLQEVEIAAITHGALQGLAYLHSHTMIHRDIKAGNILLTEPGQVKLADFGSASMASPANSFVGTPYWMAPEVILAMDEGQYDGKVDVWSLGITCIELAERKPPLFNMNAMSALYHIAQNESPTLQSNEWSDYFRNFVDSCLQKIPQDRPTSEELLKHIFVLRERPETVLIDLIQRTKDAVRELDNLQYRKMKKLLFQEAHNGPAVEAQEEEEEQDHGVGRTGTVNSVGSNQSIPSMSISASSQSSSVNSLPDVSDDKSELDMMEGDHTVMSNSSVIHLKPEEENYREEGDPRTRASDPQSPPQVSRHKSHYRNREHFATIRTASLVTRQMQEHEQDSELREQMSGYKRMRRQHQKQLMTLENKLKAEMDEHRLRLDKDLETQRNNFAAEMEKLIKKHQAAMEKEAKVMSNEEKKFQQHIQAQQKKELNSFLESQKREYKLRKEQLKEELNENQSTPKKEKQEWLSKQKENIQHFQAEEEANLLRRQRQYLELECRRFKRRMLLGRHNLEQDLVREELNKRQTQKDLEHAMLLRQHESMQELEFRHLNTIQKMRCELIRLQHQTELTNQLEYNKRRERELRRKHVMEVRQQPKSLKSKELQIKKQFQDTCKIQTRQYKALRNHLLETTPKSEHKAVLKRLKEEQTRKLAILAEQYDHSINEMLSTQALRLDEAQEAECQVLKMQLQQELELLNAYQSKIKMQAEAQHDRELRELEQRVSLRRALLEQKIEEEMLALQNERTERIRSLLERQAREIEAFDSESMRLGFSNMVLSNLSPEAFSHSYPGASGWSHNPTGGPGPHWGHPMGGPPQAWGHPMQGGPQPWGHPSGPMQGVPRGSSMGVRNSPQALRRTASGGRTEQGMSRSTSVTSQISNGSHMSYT

Assay [2] deals with T2, Ferrochelatase, mitochondrial (Homo sapiens, UniProt P22830).
T2 sequence (P22830 whole entry): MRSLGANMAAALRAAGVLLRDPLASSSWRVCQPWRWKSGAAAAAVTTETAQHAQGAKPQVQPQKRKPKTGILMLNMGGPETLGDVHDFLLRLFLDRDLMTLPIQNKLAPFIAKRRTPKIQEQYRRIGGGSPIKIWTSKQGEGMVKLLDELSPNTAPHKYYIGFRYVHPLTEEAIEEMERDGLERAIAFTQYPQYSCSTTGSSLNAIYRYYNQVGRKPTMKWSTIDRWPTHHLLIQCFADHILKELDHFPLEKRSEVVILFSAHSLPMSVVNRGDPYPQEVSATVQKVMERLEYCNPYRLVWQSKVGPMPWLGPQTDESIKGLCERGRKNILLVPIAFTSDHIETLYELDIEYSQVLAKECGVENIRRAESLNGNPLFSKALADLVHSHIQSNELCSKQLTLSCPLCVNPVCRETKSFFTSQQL

For the next assay, the target named is T3, Activin receptor type-1B (Homo sapiens, UniProt P36896).
T3 sequence (P36896 whole entry): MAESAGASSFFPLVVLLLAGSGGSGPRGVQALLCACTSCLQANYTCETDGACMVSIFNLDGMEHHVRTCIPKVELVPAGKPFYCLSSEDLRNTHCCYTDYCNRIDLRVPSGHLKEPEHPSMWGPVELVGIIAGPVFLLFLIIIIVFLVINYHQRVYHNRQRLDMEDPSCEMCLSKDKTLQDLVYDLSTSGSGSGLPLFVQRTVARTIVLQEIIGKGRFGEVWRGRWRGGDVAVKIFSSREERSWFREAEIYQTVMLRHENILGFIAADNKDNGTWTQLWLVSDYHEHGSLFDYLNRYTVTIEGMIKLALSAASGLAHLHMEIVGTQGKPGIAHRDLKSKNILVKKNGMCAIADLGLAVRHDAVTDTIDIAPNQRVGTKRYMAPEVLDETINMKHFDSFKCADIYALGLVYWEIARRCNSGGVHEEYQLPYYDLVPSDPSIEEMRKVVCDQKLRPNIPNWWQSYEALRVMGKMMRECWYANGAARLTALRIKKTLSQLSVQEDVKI
Note: in the data inactive means no Kd found up to 30 µM.

As to `CCS(=O)(=O)N1CCN(c2ccc(Nc3ncc(C(N)=O)c(NC4CC4)n3)cc2)CC1` [Cerdulatinib Hydrochloride], the results for the Kd (in assay [1]; in assay [2]; on Activin receptor type-1B) were 2.17 µM (active), > 30 µM (inactive) and > 30 µM (inactive), respectively.
As to `Cc1nc2cc(-n3ncc(C(=O)c4cc5ccccc5[nH]4)c3N)ccc2[nH]1` [FGFR INHIBITOR DEBIO 1347], the Kd (in assay [1]; in assay [2]; at Activin receptor type-1B) was > 30 µM (inactive) each time.
With `O=C(Nc1nc2cccc(-c3ccc(CN4CCS(=O)(=O)CC4)cc3)n2n1)C1CC1` [FILGOTINIB], the Kd (in assay [1]; in assay [2]; on Activin receptor type-1B) was > 30 µM (inactive) in each case.
`Cc1cccc(-c2nn3c(c2-c2ccnc4ccc(C(N)=O)cc24)CCC3)n1` [GALUNISERTIB]: the Kd was > 30 µM (inactive) in assay [1], > 30 µM (inactive) in assay [2] and 0.016 µM (active) at Activin receptor type-1B.
`COc1ccc(S(=O)(=O)N(C(C)=O)c2ccccc2/C=C/c2cc[n+]([O-])cc2)cc1` [HMN-214]: the Kd (in assay [1]; in assay [2]; at Activin receptor type-1B) was > 30 µM (inactive) each time.
For the compound `O=C(Nc1cc(C(F)(F)F)cc(C(F)(F)F)c1)c1cc(Cl)ccc1O` [IMD-0354], the Kd (in assay [1]; in assay [2]; at Activin receptor type-1B) was > 30 µM (inactive) each time.
Turning to `CNC(=O)c1cccc2cc(Oc3ccnc4cc(OCC5(N)CC5)c(OC)cc34)ccc12` [LUCITANIB], the Kd (in assay [1]; in assay [2]; on Activin receptor type-1B) was > 30 µM (inactive) throughout.
For the compound `NC1(c2ccc(-c3nc4ccn5c(=O)[nH]nc5c4cc3-c3ccccc3)cc2)CCC1` [MK-2206], the Kd is > 30 µM (inactive) in assay [1], 1.07 µM (active) in assay [2] and > 30 µM (inactive) on Activin receptor type-1B.
With `CN(C[C@@H]1COCCO1)S(=O)(=O)Nc1ccc2ccc3ncc(-c4cnn(C)c4)cc3c(=O)c2c1` [MK-2461], the Kd was > 30 µM (inactive) in assay [1], 3.42 µM (active) in assay [2] and > 30 µM (inactive) on Activin receptor type-1B.
Take `Cn1cc(-c2cnc3ccc4ccc(CS(=O)(=O)NCc5ccccn5)cc4c(=O)c3c2)cn1` [MK-8033]: the Kd in assay [1] was > 30 µM (inactive); in assay [2] it was 32.6 µM (active); on Activin receptor type-1B, > 30 µM (inactive).
For `FC(F)(F)c1ccc(/C=C/c2nc(COc3ccc(CCCCn4ccnn4)cc3)co2)cc1` [MUBRITINIB], the Kd (in assay [1]; in assay [2]; on Activin receptor type-1B) was > 30 µM (inactive) throughout.
On to `COc1ncc(-c2ccc3nccc(-c4ccnnc4)c3c2)cc1NS(=O)(=O)c1ccc(F)cc1F` [OMIPALISIB], for which the Kd (in assay [1]; in assay [2]; on Activin receptor type-1B) was > 30 µM (inactive) each time.
Turning to `CCOc1cc2ncc(C#N)c(Nc3ccc(F)c(Cl)c3)c2cc1NC(=O)/C=C/CN(C)C` [PELITINIB], the Kd in assay [1] was > 30 µM (inactive); in assay [2] it was 10.5 µM (active); at Activin receptor type-1B it was > 30 µM (inactive).
For the compound `CCCCCCCCCCCCCCCCCCOP(=O)([O-])OC1CC[N+](C)(C)CC1` [PERIFOSINE], the Kd (in assay [1]; in assay [2]; at Activin receptor type-1B) was > 30 µM (inactive) throughout.
For `Cc1nc(Nc2n[nH]c3c2CN(C(=O)N[C@H](CN(C)C)c2ccccc2)C3(C)C)c2sccc2n1` [PF-03758309], the Kd (in assay [1]; in assay [2]; at Activin receptor type-1B) was > 30 µM (inactive) in each case.
In the case of `Cc1cnc(NC(=O)Nc2cc(Br)c(C)cc2OC[C@@H]2CNCCO2)cn1` [RABUSERTIB], the Kd in assay [1] was > 30 µM (inactive); in assay [2], 3.82 µM; on Activin receptor type-1B, > 30 µM (inactive).
Regarding `CNC(=O)c1cc(Oc2ccc(NC(=O)Nc3cc(C(C)(C)C)nn3-c3ccc4ncccc4c3)c(F)c2)ccn1` [REBASTINIB], the Kd (in assay [1]; in assay [2]; on Activin receptor type-1B) was > 30 µM (inactive) each time.
In the case of `CO[C@H]1C[C@@H]2CC[C@@H](C)[C@@](O)(O2)C(=O)C(=O)N2CCCC[C@H]2C(=O)O[C@H]([C@H](C)C[C@@H]2CC[C@@H](OP(C)(C)=O)[C@H](OC)C2)CC(=O)[C@H](C)/C=C(\C)[C@@H](O)[C@@H](OC)C(=O)[C@H](C)C[C@H](C)/C=C/C=C/C=C/1C` [RIDAFOROLIMUS], the Kd (in assay [1]; in assay [2]; on Activin receptor type-1B) was > 30 µM (inactive) throughout.
As for `N#CC1(c2ccc(NC(=O)c3cccnc3NCc3ccncc3)cc2)CCCC1` [RIVOCERANIB], the Kd (in assay [1]; in assay [2]; at Activin receptor type-1B) was > 30 µM (inactive) in each case.
In the case of `O=c1[nH]ccc2cc(OC3CCNCC3)ccc12` [SAR-407899 FREE BASE], the Kd (in assay [1]; in assay [2]; at Activin receptor type-1B) was > 30 µM (inactive) throughout.
With `CN1CCN(CCOc2cc(OC3CCOCC3)c3c(Nc4c(Cl)ccc5c4OCO5)ncnc3c2)CC1` [SARACATINIB], the Kd in assay [1] was > 30 µM (inactive); in assay [2], > 30 µM (inactive); on Activin receptor type-1B, 0.142 µM (active).
For the compound `Cn1cc(-c2cnn3c(N)c(Br)c([C@@H]4CCCNC4)nc23)cn1` [SCH-900776], the Kd (in assay [1]; in assay [2]; on Activin receptor type-1B) was > 30 µM (inactive) throughout.
As for `CO[C@H]1C[C@@H]2CC[C@@H](C)[C@@](O)(O2)C(=O)C(=O)N2CCCC[C@H]2C(=O)O[C@H]([C@H](C)C[C@@H]2CC[C@@H](O)[C@H](OC)C2)CC(=O)[C@H](C)/C=C(\C)[C@@H](O)[C@@H](OC)C(=O)[C@H](C)C[C@H](C)/C=C/C=C/C=C/1C` [SIROLIMUS], the Kd (in assay [1]; in assay [2]; at Activin receptor type-1B) was > 30 µM (inactive) in each case.
In the case of `CCS(=O)(=O)c1cccc(-c2cc(C(=O)NC3CCN(C)CC3)c(C)c3[nH]c4ncc(C)cc4c23)c1` [TAK-901], the Kd (in assay [1]; in assay [2]; at Activin receptor type-1B) was > 30 µM (inactive) in each case.
Regarding `CO[C@H]1C[C@@H]2CC[C@@H](C)[C@@](O)(O2)C(=O)C(=O)N2CCCC[C@H]2C(=O)O[C@H]([C@H](C)C[C@@H]2CC[C@@H](OC(=O)C(C)(CO)CO)[C@H](OC)C2)CC(=O)[C@H](C)/C=C(\C)[C@@H](O)[C@@H](OC)C(=O)[C@H](C)C[C@H](C)/C=C/C=C/C=C/1C` [TEMSIROLIMUS], the Kd (in assay [1]; in assay [2]; on Activin receptor type-1B) was > 30 µM (inactive) each time.
`COc1cc2c(Nc3ccc(Cl)c(Cl)c3F)ncnc2cc1OC[C@@H]1C[C@@H]2CN(C)C[C@@H]2C1` [TESEVATINIB]: the Kd (in assay [1]; in assay [2]; on Activin receptor type-1B) was > 30 µM (inactive) each time.
As for `O=C(Cc1ccc(-c2ccc(OCCN3CCOCC3)cc2)cn1)NCc1ccccc1` [TIRBANIBULIN], the Kd (in assay [1]; in assay [2]; on Activin receptor type-1B) was > 30 µM (inactive) in each case.
Turning to `O=C1NC(=O)[C@@H](c2cn3c4c(cccc24)CCC3)[C@@H]1c1c[nH]c2ccccc12` [TIVANTINIB], the Kd (in assay [1]; in assay [2]; at Activin receptor type-1B) was > 30 µM (inactive) in each case.
